Experimental data published in paper PMC5530730, “^11C-Labeling of Aryl Ketones as Candidate Histamine Subtype-3 Receptor PET Radioligands through Pd(0)-Mediated ^11C-Carbonylative Coupling” (Molecules : A Journal of Synthetic Chemistry and Natural …, 2017).
Read-outs that look alike come from different tables or passages of the source.

Tests used:
[1] = biological target: H3 receptors (Cavia porcellus, UniProt Q9JI35); assay: Competitive binding, displacement of [3H]α-methylhistamine, PDSP; design: species or system guinea pig
[2] = biological target: cloned human H3 receptors; design: method as in PMID 15634000; details: [3H]α-methylhistamine; membranes of C6 cells expressing cloned human H3 receptors; read-out: Affinity (Ki, nM) H3 (lit); cited from earlier work
[3] = biological target: H2R (Homo sapiens, UniProt P25021); assay: Competitive binding, displacement of [3H]tiotidine, PDSP; details: human recombinant receptors expressed in HEK293T cells, read-out: Affinity (Ki, nM) H2
[4] = biological target: H1R (Homo sapiens, UniProt P35367); assay: Competitive binding, displacement of [3H]pyrilamine, PDSP; details: human recombinant receptors expressed in HEK293T cells, read-out: Affinity (Ki, nM) H1
[5] = [3H]α-methylhistamine, guinea pig cells expressing H3 receptors, NIMH PDSP, read-out: Affinity (Ki, nM) H3

H1R, sequence (P35367 whole entry): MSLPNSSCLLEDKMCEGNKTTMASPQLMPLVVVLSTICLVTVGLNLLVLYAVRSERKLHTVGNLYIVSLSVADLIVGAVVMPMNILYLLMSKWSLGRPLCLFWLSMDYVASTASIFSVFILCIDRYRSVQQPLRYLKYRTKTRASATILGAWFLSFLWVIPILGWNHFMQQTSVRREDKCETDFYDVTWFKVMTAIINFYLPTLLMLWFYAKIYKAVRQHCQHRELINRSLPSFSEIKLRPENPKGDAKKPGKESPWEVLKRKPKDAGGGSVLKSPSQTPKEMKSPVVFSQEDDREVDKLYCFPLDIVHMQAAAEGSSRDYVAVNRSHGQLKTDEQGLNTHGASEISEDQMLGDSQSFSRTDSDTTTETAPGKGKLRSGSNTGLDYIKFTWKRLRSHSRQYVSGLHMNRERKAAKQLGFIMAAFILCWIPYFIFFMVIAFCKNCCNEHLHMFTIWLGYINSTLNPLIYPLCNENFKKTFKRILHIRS
H2R, sequence (P25021 whole entry): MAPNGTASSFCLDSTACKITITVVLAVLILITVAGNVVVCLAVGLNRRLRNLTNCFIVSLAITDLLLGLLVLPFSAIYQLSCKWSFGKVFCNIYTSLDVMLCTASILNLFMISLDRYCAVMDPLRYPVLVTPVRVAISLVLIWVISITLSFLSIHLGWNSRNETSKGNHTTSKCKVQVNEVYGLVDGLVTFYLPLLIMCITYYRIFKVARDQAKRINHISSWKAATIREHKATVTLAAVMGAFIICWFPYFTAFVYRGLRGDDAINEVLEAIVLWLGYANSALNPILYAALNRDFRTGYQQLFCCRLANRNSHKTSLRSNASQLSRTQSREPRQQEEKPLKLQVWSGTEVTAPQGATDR
H3 receptors, sequence (Q9JI35 whole entry): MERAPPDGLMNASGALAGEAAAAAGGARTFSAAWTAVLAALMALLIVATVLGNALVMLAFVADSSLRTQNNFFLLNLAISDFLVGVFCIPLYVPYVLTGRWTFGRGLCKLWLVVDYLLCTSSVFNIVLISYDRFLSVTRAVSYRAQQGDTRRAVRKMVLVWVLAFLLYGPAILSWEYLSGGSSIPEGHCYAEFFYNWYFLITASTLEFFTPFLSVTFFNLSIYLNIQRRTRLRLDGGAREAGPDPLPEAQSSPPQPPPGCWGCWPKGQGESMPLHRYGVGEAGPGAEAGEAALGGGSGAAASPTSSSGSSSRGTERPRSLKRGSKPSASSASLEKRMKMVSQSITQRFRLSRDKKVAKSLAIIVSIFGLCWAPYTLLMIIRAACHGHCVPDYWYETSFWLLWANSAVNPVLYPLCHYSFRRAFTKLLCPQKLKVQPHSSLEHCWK

| Ki [1, 5] [nM] | Ki [3] [nM] | Ki [4] [nM] | Structure (SMILES) | Ki [2] [nM] | Ki [1] [nM] |
| --- | --- | --- | --- | --- | --- |
| 2.9 | 630 | > 10000 | C[C@@H]1CCCN1CCc1cc2cc(C(=O)c3cc(F)cc(F)c3)ccc2o1 [Ligand 4, (R)-(3,5-Difluorophenyl)(2-(2-(2-methylpyrrolidin-1-yl)ethyl)benzofuran-5-yl)methanone] | 0.09 | – |
| 4.9 | 1370 | > 10000 | C[C@@H]1CCCN1CCc1cc2cc(C(=O)c3cccc(F)c3)ccc2o1 [Ligand 3] | 0.1 | – |
| 2.1 | 706 | 1030 | C[C@@H]1CCCN1CCc1cc2cc(C(=O)c3ccc([N+](=O)[O-])cc3)ccc2o1 [Ligand 1] | – | – |

| Structure (SMILES) | Ki [1, 5] [nM] | Ki [3] [nM] | Ki [4] [nM] | Ki [2] [nM] | Ki [1] [nM] |
| --- | --- | --- | --- | --- | --- |
| C[C@@H]1CCCN1CCc1cc2cc(C(=O)c3ccc(F)cc3)ccc2o1 [Ligand 2] | – | 923 | 7050 | – | 4.2 |
